pIC50: −log10 of the molar value. Structures can show the parent of a compound that is named as a salt. Where two headings read alike, the source gives them in different places. Marks after values point to notes of the source that are not given here.

Data set [1] has as its target batrachotoxin receptors in the synaptosome from the rat brain (sodium channel). Put plainly: Inhibition of the binding of batrachotoxin to receptors in rat brain synaptosome. The settings on record: 1.5 nM tritiated batrachotoxin A20-alfa-benzoate, 100 μM veratridine, 37° C., 30 minutes.
Data set [2] has as its system formalin-induced nociceptive response. Put plainly: Formalin-induced nociceptive response in rats. It is filed as in vivo, rat. The settings on record: for inhibition in vivo at 10 mg/kg: Rattus norvegicus, po, 10 mg/kg orally 30 minutes before formalin. On the procedure: Specifically, 25 μL of 0.5% formalin solution was subcutaneously injected into the left foot pad of the rat, and then each behavior of the rat consisting of the licking or biting of the pad immediately following the injection was checked with a stopwatch for its duration, and its cumulative duration was recorded at five minute intervals. […] The test compound was orally applied to the rat 30 minutes before the subcutaneous injected of formalin. Then, the inhibitory effect of the test compound on the nociceptive response induced by the formalin injection was calculated according to the following formula. To mention, for illustration, the inhibitory effect of carbamazepine, an agent to serve as a comparative example, if it is orally applied at 50 mg/kg, it inhibits the first-phase response by 52%, while it inhibits the second-phase response by 59%. Percent inhibition (%) -[([…]]×100 wherein […] is the response time (sec) of the test group which received formalin and the test compound, while PRcontol is the response time of the control group which received formalin alone.

Data set [3] has as its system isolated myocardial cells. Description: Inhibition of veratrine-induced contracture of isolated myocardial cells. The settings on record: Rattus norvegicus; veratrine 100 μg/mL, test compound 30 minutes before. It is filed as cell-based. The procedure:
Specifically, the heart removed from the rat according to the Langendorff's method was treated with an enzyme, and isolated myocardial cells were obtained. The myocardial cells were inoculated on a 48 multi-well plate (3548 Coster) previously coated with poly-L-lysine at a rate of 1×10^4 cells/well. The plate was kept at 37° C. for 1 hour while being exposed to a flow of gas comprising 95% O2 and 5% CO2, to allow the cells to adhere to the bottom of each well. Then, the test compound was added to each well, and allowed to be there for 30 minutes, and […] to each well to 100 μg/mL. Five minutes later, the cells of each well was checked for their morphological changes, and the changes were photographed. If the cells' shape changed from a rod-like one into a ball-like one in the presence of veratrine, the cells were regarded as falling to contracture as a result of the exposure to veratrine. The inhibitory effect of the test compound on the contracture was determined by the probit method, and was expressed in terms of IC50. Veratrine is a mixture of […] alkaloids. If veratrine is applied to isolated myocardial cells, the cells which take a rod-like shape in a normal state will fall to contracture, taking a ball-like shape. Veratrine, when applied to isolated myocardial cells, is thought to cause a persistent sodium current in the cells, by suppressing the inactivation of the sodium channel in the cells, which leads to the contracture of the cells (Donck et al., ibid).

The test system of data set [4] is transient sodium current in neuroblastoma cells. Put plainly: Voltage-clamp, transient sodium current. The settings on record: at 53 μM.
Experimental: This experiment was undertaken by the method disclosed by Verdonck et al., Eur. J. Pharmacol., 203:371, 1991. Neuroblastoma cells were used. Isolated cells were strewn over a recording chamber filled with perfusion fluid; the membrane currents are recorded in a whole cell configuration by the voltage-clamp method based on the use of a glass microcapillary. Current components due to ions other than sodium ion were eliminated as follows. The potassium current was removed by cesium ion introduced in the capillary, and the calcium current was removed by cobalt ion added to the perfusion fluid. Measurement of the transient sodium current of the cells was achieved by applying depolarizing pulses at appropriate intervals to the cells clamped at holding potential, and by observing a transient inward current elicited therewith.
The test system of data set [5] is Crj:CD(SD) IGS female rats. Description: Toxicological study, 14-day oral gavage. The note with it: 5 or 10 mg/kg/day orally once daily for 14 days.
Data set [6] deals with response threshold to a mechanical stimulus. Put plainly: Rat model made by loosely constricting the sciatic nerve (Bennett), von Frey threshold. It is filed as in vivo. The note with it: constriction, 1 hour after dosing. On the procedure:
(“Pain,” 33:87, 1988). Specifically, the rat was anesthetized with i.p. injection of pentobarbital sodium at 40 mg/kg; the overlying skin was cut open; and the left biceps femoris muscle was bluntly separated. The sciatic nerve was isolated from surrounding tissues; it was gently constricted at four sites about 1 mm apart from each other by the use of surgical gut sutures (4-0); the operated part was closed; and the rat was returned to its cage for further feeding. For the rat belonging to the sham-surgery group, the same operation was performed except that the sciatic nerve was left untouched. Two weeks after the surgery, the response threshold to a mechanical stimulus consisting of touch with a von Frey filament was determined. The test proceeded as follows: the test compound dissolved or suspended in a solvent (0.5% aqueous solution of hydroxypropylmethyl cellulose) was orally applied to the rat having the sciatic nerve constricted; one hour later, von Frey hairs were applied against the foot pad (spots ranging from heel to the mid-point of foot) one after another in an ascending order of their stiffness; if the rat raises its foot when a certain von Frey hair was applied, the stimulus intensity of that hair was taken as the response threshold (maximum stimulus intensity being 28.84g).

Where [7] appears, read: 10 min, first 10 minutes, read-out: Response inhibition, 1st phase.
Where [8] appears, read: 0.75 h, 10 to 45 minutes, read-out: Response inhibition, 2nd phase.

The term melting point denotes the temperature of the solid-liquid transition. On to `CC(C)Oc1ccc(NCCC2(O)CCN(CCc3ccc(C#N)cc3)CC2)cc1.Cl.Cl`, for which the melting point is 197.3 °C (dec.).
In general, pIC50 refers to −log10 of the IC50, conventionally taken in molar units. For `CC(C)Oc1ccc(N(C)CCC2(O)CCN(CCc3ccccc3)CC2)cc1.Cl.Cl` [Example 50, 4-[2-[N-methyl-N-(4-isopropoxyphenyl)-amino]ethyl]-1-(2-phenylethyl)piperidin-4-ol dihydrochloride], the melting point was in the range of 189.7 to 192.6 °C. In data set [1], the pIC50 is 6.52. Further, in data set [2] (setting [7]), the inhibition in vivo at 10 mg/kg was determined as 44%. Besides, in data set [2] (setting [8]), the inhibition in vivo at 10 mg/kg turned out to be 64%. Moreover, in data set [3], the pIC50 is 5.82.
As to `CC(C)Oc1ccc(N(C)CCC2(O)CCN(CCc3ccc(C#N)cc3)CC2)cc1.Cl.Cl` [Example 51, 1-[2-(4-cyanophenyl)ethyl]-4-[2-[N-methyl-N-(4-isopropoxyphenyl)amino]ethyl]piperidin-4-ol dihydrochloride], in data set [1], the pIC50 was 6.21. In addition, the “Decrease of the peak value of the transient inward current” value in data set [4] was found to be 18%. Moreover, in data set [5], the Body weight result is listed as “no loss in the weight”, the General conditions result was “no notable abnormalities in general conditions”, the Histopathological examination result is “no abnormal findings were obtained” and the “Survival during treatment period” value is recorded as “All the rats survived”. Besides, in data set [6] (2.5 mg/kg oral), the “Mean threshold, normal foot (right)” value turned out to be 16.43 g and the “Mean threshold, test foot (left)” value worked out at 8.33 g. Moreover, in data set [6] (5 mg/kg oral), the “Mean threshold, normal foot (right)” value came to 16.43 g and the “Mean threshold, test foot (left)” value is 12.63* g. Also, in data set [6] (10 mg/kg oral), the “Mean threshold, normal foot (right)” value is reported as 16.85 g and the “Mean threshold, test foot (left)” value is given as 15.58** g. In addition, the inhibition in vivo at 10 mg/kg in data set [2] (setting [7]) was found to be 46%. For the same molecule, the inhibition in vivo at 10 mg/kg in data set [2] (setting [8]) turned out to be 67%. Also, in data set [3], the negative logarithm of the IC50 (pIC50) is 5.81.
Regarding `CC(C)Oc1ccc(N(C)CCC2(O)CCN(CCc3ccc(F)cc3)CC2)cc1.Cl.Cl` [Example 55, 1-[2-(4-fluorophenyl)ethyl]-4-[2-[N-methyl-N-(4-isopropoxyphenyl)amino]ethyl]piperidin-4-ol dihydrochloride], the melting point is 252 °C (dec.). The molecule further gave a pIC50 in data set [1] of 6.55. The inhibition in vivo at 10 mg/kg in data set [2] (setting [7]) was found to be 30%. The inhibition in vivo at 10 mg/kg in data set [2] (setting [8]) came out at 55%. Moreover, the pIC50 in data set [3] was 5.87.
For the molecule `CC(C)Oc1ccc(N(C)CCC2(O)CCN(CCc3ccc([N+](=O)[O-])cc3)CC2)cc1` [Example 56, 4-[2-[N-methyl-N-(4-isopropoxyphenyl)amino]ethyl]-1-[2-(4-nitrophenyl)ethyl]piperidin-4-ol dihydrochloride], the inhibition in vivo at 10 mg/kg was found to be 40% in data set [2] (setting [7]) and 70% in data set [2] (setting [8]).
Taken in the same sequence, the figures for `CC(C)Oc1ccc(N(C)CCC2(O)CCN(CCc3cccc(F)c3)CC2)cc1` [Example 58, 1-[2-(3-fluorophenyl)ethyl]-4-[2-[N-methyl-N-(4-isopropoxyphenyl)amino]ethyl]piperidin-4-ol dihydrochloride] were 29% and 56%.
For `CC(C)Oc1ccc(N(C)CCC2(O)CCN(CCc3ccc(Cl)cc3)CC2)cc1` [Example 60, 1-[2-(4-chlorophenyl)ethyl]-4-[2-[N-methyl-N-(4-isopropoxyphenyl)amino]ethyl]piperidin-4-ol dihydrochloride], the figures for the inhibition in vivo at 10 mg/kg in data set [2] (setting [7]) and in data set [2] (setting [8]) were 61% and 92%, respectively.
In the case of `CC(C)Oc1ccc(N(C)CCC2(O)CCN(CCc3ccccc3C(F)(F)F)CC2)cc1` [Example 65, 4-[2-[N-methyl-N-(4-isopropoxyphenyl)amino]ethyl]-1-[2-[2-(trifluoromethyl)phenyl]ethyl]piperidin-4-ol dihydrochloride], the inhibition in vivo at 10 mg/kg was 93% in data set [2] (setting [7]) and 96% in data set [2] (setting [8]).
`CC(C)Oc1ccc(N(C)CCC2(O)CCN(CCc3ccoc3)CC2)cc1.Cl.Cl` [Example 84, 1-[2-(3-furyl)ethyl]-4-[2-[N-methyl-N-(4-isopropoxyphenyl)amino]ethyl]piperidin-4-ol dihydrochloride]: the melting point fell in the range of 202.6 to 203.9 °C. Also, the inhibition in vivo at 10 mg/kg in data set [2] (setting [7]) stood at 23%. Besides, the inhibition in vivo at 10 mg/kg in data set [2] (setting [8]) is 49%.
With `CC(C)Oc1ccc(N(C)CCC2(O)CCN(CCc3cccs3)CC2)cc1.Cl.Cl` [Example 86, 4-[2-[N-methyl-N-(4-isopropoxyphenyl)amino]ethyl]-1-[2-(2-thienyl)ethyl]piperidin-4-ol dihydrochloride], the melting point was 203 to 204.5 °C. In data set [2] (setting [7]), the inhibition in vivo at 10 mg/kg is 19%. Also, in data set [2] (setting [8]), the inhibition in vivo at 10 mg/kg is 62%. Moreover, the pIC50 in data set [3] is 5.78.
Molecule `CCOc1ccc(N(C)CCC2(O)CCN(CCc3ccc(C#N)cc3)CC2)cc1.Cl.Cl` [Example 90, 1-[2-(4-cyanophenyl)ethyl]-4-[2-[N-(4-ethoxyphenyl)-N-methylamino]ethyl]piperidin-4-ol dihydrochloride] yielded a melting point of 214 to 215.2 °C. For the same molecule, the inhibition in vivo at 10 mg/kg in data set [2] (setting [7]) is 55%. Also, the inhibition in vivo at 10 mg/kg in data set [2] (setting [8]) amounted to 65%.
On the same counts, the results for `CC(C)Oc1ccc(N(C)CC2(O)CCN(CCc3ccc(C#N)cc3)CC2)cc1.Cl.Cl` [Example 96, 1-[2-(4-cyanophenyl)ethyl]-4-[N-methyl-N-(4-isopropoxyphenyl)aminomethyl]piperidin-4-ol dihydrochloride] are 202.8 to 203.4 °C, 74% and 69%.
With `NC(=O)N1c2ccccc2C=Cc2ccccc21` [carbamazepine, reference compound], the pIC50 in data set [1] is ≤ 3.52. Also, in data set [6] (50 mg/kg oral), the “Mean threshold, normal foot (right)” value worked out at 19.85 g and the “Mean threshold, test foot (left)” value is given as 8.97 g. In data set [6] (100 mg/kg oral), the “Mean threshold, normal foot (right)” value is given as 27.13 g and the “Mean threshold, test foot (left)” value is listed as 19.43** g. In data set [2] (orally applied at 50 mg/kg), the “Inhibition of the first-phase response” value was 52% and the “Inhibition of the second-phase response” value was 59%.
As for `Cc1cccc(C)c1OCC(C)N` (centres unmarked) [mexiletine, reference compound], the pIC50 in data set [1] was 4.77.
Still for that read-out and setting: the same measure for `O=C1NC(=O)C(c2ccccc2)(c2ccccc2)N1` [phenytoin, reference compound]: 4.29.

Values taken from patent US6642257B2, “Agents for treating neuropathic pain” (Mochida Pharmaceutical Co., Ltd., priority 1999, dated 2003).
